Columns and labels:
Assay in all cases: KINOMEscan (ScanMAX) kinase profiling
Format in all cases: binding
panel of 468 kinases [1] = molecular target: T1, panel of 468 kinases (Homo sapiens, UniProt P00533, DEL746-750); conditions: EGFR(E746-A750del); 1 μM; read-out: % control
T1 construct: purchased KINOMEscan (ScanMAX) service

panel of 468 kinases [2] = molecular target: T2, panel of 468 kinases (Homo sapiens, UniProt P07332); conditions: FES; 1 μM; read-out: % control
T2 construct: purchased KINOMEscan (ScanMAX) service
T2 sequence (P07332 whole entry): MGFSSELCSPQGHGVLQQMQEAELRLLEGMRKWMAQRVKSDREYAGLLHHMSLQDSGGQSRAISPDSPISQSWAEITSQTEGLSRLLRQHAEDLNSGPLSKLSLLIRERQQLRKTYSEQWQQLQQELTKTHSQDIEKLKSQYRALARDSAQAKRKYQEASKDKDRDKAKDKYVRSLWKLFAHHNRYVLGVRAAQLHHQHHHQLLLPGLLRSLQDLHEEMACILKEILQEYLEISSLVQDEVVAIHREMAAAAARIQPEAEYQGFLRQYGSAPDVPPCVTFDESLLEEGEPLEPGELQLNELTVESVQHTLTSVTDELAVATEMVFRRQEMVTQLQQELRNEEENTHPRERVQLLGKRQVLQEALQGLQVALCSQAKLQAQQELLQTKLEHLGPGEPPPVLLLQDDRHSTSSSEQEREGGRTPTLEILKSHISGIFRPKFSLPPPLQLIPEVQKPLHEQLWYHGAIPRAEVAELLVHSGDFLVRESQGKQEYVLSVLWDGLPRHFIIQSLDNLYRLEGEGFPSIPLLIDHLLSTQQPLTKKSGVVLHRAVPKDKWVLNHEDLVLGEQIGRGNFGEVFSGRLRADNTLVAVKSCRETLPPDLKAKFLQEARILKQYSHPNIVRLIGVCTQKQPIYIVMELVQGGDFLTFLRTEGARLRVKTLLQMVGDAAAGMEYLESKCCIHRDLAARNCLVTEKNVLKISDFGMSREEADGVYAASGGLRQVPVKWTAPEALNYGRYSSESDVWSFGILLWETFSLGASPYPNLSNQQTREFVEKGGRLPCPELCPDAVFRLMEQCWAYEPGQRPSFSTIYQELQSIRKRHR

panel of 468 kinases [3] = molecular target: T3, panel of 468 kinases (Homo sapiens, UniProt P10721, L576P); conditions: KIT(L576P); 1 μM; read-out: % control
T3 construct: purchased KINOMEscan (ScanMAX) service
T3 sequence (P10721 26-976 L576P): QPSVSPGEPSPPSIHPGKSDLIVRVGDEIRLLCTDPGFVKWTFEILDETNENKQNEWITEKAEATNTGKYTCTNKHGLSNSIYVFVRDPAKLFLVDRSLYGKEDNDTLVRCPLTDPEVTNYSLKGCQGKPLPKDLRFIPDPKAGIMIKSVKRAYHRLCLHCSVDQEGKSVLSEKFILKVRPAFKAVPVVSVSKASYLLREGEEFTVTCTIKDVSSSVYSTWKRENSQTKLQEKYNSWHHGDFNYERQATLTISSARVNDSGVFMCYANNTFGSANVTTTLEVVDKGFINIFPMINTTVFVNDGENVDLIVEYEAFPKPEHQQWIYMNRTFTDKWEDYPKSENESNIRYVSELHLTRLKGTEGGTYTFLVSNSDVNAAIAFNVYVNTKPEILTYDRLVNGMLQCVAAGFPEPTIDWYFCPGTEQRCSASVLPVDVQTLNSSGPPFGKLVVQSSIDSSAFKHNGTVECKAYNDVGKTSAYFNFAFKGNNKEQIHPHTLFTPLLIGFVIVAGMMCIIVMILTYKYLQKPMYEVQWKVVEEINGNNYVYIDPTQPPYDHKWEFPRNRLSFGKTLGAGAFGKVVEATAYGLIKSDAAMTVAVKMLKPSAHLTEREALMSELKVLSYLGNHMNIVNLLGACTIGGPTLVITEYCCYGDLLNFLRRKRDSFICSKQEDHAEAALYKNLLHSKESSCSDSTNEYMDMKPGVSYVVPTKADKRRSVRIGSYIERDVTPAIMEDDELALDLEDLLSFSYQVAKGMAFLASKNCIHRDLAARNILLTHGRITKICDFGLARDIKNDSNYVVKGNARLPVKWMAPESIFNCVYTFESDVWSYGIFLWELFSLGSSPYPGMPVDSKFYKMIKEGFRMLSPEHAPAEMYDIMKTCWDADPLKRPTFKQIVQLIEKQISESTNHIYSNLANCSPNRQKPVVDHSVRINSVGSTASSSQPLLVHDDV

panel of 468 kinases [4] = molecular target: T4, panel of 468 kinases (Homo sapiens, UniProt Q9BZL6); conditions: PRKD2; 1 μM; read-out: % control
T4 construct: purchased KINOMEscan (ScanMAX) service
T4 sequence (Q9BZL6 1-878): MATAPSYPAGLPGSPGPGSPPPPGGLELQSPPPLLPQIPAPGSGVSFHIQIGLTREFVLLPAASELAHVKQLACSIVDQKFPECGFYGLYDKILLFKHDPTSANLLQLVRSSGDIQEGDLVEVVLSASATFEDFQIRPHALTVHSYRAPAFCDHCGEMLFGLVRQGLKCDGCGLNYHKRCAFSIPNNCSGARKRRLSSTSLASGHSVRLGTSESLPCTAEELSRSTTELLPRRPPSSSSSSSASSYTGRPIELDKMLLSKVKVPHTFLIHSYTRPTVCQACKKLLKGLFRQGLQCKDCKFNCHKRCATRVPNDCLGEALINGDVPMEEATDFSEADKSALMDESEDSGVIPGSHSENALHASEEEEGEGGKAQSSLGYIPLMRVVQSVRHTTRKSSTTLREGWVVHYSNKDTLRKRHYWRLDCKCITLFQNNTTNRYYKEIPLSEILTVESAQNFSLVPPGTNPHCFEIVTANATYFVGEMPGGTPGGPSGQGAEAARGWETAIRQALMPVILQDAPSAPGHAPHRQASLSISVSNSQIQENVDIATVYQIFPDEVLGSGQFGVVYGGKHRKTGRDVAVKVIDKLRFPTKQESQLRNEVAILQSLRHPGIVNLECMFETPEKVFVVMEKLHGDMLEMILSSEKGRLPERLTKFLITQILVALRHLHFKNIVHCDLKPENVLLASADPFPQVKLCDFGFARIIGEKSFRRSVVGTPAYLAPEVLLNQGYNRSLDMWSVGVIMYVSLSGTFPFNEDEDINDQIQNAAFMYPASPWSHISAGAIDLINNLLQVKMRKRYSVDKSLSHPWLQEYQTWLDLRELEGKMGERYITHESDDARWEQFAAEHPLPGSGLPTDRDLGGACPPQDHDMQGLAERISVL

panel of 468 kinases [5] = molecular target: T5, panel of 468 kinases (Homo sapiens, UniProt Q9NRH2); conditions: SNRK; 1 μM; read-out: % control
T5 construct: purchased KINOMEscan (ScanMAX) service
T5 sequence (Q9NRH2 1-765): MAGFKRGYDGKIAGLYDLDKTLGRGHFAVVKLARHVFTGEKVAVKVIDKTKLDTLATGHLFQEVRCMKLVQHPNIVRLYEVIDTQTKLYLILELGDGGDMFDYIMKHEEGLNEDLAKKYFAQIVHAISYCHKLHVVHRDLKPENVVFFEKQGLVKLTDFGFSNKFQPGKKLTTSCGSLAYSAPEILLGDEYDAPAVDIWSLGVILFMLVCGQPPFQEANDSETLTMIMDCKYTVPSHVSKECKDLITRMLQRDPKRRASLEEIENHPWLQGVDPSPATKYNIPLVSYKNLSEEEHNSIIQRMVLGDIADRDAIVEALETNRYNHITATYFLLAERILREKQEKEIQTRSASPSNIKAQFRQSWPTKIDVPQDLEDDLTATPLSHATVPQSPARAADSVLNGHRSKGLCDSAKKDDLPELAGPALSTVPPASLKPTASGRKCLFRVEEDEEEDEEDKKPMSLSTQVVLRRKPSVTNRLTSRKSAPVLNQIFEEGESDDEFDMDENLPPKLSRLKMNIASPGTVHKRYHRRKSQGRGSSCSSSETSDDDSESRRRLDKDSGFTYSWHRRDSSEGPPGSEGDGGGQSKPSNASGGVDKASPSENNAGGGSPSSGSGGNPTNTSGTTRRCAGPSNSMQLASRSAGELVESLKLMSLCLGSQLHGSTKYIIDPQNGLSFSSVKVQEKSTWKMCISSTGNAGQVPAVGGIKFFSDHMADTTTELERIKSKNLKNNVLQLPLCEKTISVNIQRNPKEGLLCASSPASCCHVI

T1 sequence (P00533 with tags, fused parts or gaps DEL746-750): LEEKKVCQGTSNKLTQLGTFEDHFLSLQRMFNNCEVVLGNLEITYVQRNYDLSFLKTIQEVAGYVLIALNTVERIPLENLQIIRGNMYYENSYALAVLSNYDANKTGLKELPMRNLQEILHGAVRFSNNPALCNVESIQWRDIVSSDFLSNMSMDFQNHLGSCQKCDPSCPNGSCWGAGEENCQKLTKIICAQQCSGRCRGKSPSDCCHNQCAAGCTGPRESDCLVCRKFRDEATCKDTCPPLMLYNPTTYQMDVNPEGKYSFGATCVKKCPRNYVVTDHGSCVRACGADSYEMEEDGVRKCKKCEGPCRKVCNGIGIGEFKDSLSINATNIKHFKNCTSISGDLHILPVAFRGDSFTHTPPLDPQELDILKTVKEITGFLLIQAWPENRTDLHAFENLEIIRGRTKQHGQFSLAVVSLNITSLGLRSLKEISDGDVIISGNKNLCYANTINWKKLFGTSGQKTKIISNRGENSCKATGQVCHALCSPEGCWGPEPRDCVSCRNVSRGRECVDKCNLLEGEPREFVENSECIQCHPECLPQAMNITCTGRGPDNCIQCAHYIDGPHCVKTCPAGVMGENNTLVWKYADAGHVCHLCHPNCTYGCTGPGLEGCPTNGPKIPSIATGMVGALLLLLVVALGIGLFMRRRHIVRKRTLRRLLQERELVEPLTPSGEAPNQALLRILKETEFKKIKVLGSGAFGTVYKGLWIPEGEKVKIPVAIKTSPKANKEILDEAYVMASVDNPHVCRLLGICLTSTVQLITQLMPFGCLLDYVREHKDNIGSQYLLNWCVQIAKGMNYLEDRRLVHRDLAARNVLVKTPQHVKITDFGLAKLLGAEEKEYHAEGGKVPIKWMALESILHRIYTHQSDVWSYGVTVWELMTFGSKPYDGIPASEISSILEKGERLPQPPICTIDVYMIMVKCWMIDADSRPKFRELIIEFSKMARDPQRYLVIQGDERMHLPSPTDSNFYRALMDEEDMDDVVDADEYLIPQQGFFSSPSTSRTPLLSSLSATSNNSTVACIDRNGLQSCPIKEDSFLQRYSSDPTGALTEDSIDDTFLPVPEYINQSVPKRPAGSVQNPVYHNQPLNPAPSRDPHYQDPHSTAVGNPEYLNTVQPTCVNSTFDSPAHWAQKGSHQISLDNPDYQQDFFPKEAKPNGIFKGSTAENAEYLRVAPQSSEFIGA

Compound	remaining binding at 1 µM (panel of 468 kinases [1])	remaining binding at 1 µM (panel of 468 kinases [2])	remaining binding at 1 µM (panel of 468 kinases [3])	remaining binding at 1 µM (panel of 468 kinases [4])	remaining binding at 1 µM (panel of 468 kinases [5])
CNc1nc(Nc2ccc(S(=O)(=O)N3CCC(N4CCOCC4)CC3)cc2OC)nc2[nH]cc(Cl)c12 [Compound 12, 5-chloro-N2-(2-methoxy-4-((4-morpholinopiperidin-1-yl)sulfonyl)phenyl)-N4-methyl-7H-pyrrolo[2,3-d]pyrimidine-2,4-diamine]	75%	100%	97%	37%	91%
CNc1nc(Nc2ccc(P3(=O)CCN(C4CCOCC4)CC3)cc2OC)nc2[nH]cc(Cl)c12 [Compound 77, 4-(4-((5-chloro-4-(methylamino)-7H-pyrrolo[2,3-d]pyrimidin-2-yl)amino)-3-methoxyphenyl)-1-(tetrahydro-2H-pyran-4-yl)-1,4-azaphosphinane 4-oxide]	87%	80%	100%	14%	50%
CNc1nc(Nc2ccc(C(=O)N3CCC(N4CCOCC4)CC3)c3c2OCO3)nc2[nH]cc(Cl)c12 [Compound 75, (7-((5-chloro-4-(methylamino)-7H-pyrrolo[2,3-d]pyrimidin-2-yl)amino)benzo[d][1,3]dioxol-4-yl)(4-morpholinopiperidin-1-yl)methanone]	94%	81%	36%	2.2%	87%
